Patent publication US12447153B2, “HER2 mutation inhibitors” (Array BioPharma Inc., priority 2021, dated 2025)

Legend:
ErbB2 WT = ErbB2 WT (Homo sapiens (Human), UniProt P04626); experiment: ErbB Enzyme Assay (HTRF KinEASE-TK), Assay 2; format: biochemical
EGFR wild type (EGFR WT) = EGFR wild type (EGFR WT) (Homo sapiens (Human), UniProt P00533); experiment: Cellular Phosphorylation Assay, Assay 5 (EGF-stimulated EGFR phosphorylation, NIH 3T3 cells); format: cell-based
BCRP = BCRP (Homo sapiens (Human), UniProt Q9UNQ0); experiment: BCRP MDCKII efflux assay (Assay 7); format: in vitro ADME; details: dog; efflux ratio Papp(B-A)/Papp(A-B), BCRP MDCKII cells; read-out: Assay 7 Pe Ratio
BCRP, sequence (Q9UNQ0 whole entry): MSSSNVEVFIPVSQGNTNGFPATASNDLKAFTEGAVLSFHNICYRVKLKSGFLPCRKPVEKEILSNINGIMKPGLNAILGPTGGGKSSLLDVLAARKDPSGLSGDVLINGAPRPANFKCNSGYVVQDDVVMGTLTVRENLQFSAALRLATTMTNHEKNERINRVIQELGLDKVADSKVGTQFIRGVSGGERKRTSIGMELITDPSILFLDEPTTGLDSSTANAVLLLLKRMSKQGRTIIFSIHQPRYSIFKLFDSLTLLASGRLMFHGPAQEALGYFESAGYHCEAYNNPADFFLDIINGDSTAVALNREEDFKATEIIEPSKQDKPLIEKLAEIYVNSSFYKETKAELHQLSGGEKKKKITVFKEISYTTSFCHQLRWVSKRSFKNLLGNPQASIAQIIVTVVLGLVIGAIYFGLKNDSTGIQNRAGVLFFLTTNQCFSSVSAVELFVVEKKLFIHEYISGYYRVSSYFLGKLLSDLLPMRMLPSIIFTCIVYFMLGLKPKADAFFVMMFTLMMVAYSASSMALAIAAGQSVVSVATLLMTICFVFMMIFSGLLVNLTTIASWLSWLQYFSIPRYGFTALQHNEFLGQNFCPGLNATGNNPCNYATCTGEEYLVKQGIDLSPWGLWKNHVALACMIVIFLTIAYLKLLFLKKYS
Method: Assay conditions included with and without the BCRP-specific inhibitor, KO143, at a concentration of 0.3 μM to ascertain the contribution of BCRP to the efflux value of the test compound.
Final organic concentration in the assay was 1%.

[1] = target: ErbB2 with Exon 20 YVMA insertion (HER2-YVMA) (Homo sapiens (Human), UniProt P04626, INS775YVMA); experiment: Cellular Phosphorylation Assay, Assay 4 (constitutive ErbB2 phosphorylation, NIH 3T3 cells); format: cell-based
ErbB2 with Exon 20 YVMA insertion (HER2-YVMA), sequence (P04626 other isoform, or with tags, fused parts or gaps ins YVMA behind 775): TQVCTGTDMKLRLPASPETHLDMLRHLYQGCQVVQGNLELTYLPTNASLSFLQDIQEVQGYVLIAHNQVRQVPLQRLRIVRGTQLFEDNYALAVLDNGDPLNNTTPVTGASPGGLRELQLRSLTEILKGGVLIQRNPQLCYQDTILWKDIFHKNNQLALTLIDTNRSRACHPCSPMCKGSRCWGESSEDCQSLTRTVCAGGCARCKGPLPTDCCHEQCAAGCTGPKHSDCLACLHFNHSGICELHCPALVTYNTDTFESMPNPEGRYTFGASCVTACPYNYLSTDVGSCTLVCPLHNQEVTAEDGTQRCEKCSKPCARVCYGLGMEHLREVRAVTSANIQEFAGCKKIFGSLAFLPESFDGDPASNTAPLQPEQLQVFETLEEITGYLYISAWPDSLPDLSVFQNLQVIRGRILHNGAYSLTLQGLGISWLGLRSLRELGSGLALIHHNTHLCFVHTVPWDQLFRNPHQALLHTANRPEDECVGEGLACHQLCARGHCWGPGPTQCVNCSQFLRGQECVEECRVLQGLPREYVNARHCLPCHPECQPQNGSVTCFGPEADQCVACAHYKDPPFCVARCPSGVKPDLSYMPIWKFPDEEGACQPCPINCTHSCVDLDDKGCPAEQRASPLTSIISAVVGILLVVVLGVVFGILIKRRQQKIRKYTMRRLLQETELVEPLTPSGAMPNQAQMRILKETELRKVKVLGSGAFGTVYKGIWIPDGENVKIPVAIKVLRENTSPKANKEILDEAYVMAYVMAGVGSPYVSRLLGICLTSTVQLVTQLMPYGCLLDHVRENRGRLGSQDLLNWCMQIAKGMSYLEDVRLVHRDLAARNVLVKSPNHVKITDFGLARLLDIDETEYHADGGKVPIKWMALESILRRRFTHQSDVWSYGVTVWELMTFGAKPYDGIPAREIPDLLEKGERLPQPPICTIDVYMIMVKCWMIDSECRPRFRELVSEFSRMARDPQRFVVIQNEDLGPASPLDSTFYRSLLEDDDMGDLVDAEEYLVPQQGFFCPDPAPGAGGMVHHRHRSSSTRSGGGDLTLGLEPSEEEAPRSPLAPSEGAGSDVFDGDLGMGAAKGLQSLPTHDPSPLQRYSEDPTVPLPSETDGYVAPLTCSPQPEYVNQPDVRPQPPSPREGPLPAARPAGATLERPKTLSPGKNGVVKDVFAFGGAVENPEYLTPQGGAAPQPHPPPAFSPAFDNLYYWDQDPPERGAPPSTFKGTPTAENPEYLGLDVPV

MDR1 (P-gp) = MDR1 (P-gp) (Homo sapiens (Human), UniProt P08183); experiment: in vitro; details: pig, LLC-PK1
MDR1 (P-gp), sequence (P08183 whole entry): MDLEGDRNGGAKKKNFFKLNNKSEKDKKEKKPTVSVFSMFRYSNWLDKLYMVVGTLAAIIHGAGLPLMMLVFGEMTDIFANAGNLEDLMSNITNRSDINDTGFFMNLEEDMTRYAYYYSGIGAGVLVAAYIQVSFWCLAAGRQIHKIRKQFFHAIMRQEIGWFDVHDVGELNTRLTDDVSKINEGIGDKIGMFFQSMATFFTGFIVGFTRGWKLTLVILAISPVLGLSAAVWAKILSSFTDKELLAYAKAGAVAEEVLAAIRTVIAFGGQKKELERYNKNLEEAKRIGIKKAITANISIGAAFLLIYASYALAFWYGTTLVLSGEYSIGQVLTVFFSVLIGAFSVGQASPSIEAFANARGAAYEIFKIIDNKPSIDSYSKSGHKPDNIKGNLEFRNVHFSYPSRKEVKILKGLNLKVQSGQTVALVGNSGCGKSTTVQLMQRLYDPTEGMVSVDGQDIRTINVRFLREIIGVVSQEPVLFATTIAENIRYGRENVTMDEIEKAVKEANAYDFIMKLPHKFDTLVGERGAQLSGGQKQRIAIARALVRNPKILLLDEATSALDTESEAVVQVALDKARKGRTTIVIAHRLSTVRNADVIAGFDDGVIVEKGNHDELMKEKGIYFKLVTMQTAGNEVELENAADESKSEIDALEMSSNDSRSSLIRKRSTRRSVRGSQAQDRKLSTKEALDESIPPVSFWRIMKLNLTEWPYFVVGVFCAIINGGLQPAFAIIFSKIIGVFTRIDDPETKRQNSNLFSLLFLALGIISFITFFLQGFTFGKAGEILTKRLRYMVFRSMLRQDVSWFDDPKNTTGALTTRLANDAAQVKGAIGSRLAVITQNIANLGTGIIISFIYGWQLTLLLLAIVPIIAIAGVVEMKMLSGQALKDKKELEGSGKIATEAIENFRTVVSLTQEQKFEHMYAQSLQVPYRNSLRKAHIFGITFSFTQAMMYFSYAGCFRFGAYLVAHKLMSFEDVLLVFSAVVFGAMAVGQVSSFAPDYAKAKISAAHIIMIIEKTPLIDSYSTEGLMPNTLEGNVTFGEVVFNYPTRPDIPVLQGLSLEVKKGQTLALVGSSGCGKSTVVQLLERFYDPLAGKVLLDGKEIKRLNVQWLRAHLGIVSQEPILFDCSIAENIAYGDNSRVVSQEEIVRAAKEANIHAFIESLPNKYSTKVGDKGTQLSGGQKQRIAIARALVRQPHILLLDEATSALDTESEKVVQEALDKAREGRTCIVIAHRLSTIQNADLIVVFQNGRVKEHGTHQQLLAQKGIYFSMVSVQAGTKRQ

EGFR = EGFR (Homo sapiens (Human), UniProt P00533); experiment: ErbB Enzyme Assay (HTRF KinEASE-TK), Assay 3; format: biochemical
[2] = EGF-stimulated EGFR WT phosphorylation
[3] = cellular EGFR WT phosphorylation, EGF-stimulated
[4] = cellular ErbB2 YVMA phosphorylation

ErbB2 WT, sequence (P04626 23-1255): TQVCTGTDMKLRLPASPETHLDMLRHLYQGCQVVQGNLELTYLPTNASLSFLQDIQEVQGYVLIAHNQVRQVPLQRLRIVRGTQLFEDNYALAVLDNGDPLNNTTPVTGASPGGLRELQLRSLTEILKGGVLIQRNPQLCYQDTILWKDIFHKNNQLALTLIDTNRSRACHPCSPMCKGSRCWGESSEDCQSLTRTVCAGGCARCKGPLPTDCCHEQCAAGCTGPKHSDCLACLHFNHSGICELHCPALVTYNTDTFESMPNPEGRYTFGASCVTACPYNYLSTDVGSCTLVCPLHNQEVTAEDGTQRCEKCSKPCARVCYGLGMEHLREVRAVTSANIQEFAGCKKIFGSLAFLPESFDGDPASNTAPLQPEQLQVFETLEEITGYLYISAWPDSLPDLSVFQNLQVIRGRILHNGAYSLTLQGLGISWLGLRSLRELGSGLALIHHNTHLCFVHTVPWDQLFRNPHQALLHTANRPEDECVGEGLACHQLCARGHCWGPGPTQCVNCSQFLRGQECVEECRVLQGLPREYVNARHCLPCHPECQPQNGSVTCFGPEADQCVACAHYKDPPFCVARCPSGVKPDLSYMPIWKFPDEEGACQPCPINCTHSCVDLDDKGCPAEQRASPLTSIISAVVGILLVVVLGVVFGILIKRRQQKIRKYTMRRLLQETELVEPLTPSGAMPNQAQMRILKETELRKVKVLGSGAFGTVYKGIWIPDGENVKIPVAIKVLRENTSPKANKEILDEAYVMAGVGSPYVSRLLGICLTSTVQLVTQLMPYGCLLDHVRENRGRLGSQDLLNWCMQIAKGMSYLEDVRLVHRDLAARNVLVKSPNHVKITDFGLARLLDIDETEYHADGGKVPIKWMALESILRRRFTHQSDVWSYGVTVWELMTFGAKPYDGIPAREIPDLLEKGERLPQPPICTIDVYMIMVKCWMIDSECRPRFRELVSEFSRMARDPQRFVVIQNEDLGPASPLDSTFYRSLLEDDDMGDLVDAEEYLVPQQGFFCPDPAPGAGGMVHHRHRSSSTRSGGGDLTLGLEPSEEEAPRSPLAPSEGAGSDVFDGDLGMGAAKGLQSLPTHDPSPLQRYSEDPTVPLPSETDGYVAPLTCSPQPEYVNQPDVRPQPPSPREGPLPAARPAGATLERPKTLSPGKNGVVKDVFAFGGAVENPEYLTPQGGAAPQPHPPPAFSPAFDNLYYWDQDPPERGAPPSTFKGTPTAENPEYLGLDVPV

Row | IC50 (ErbB2 WT; ErbB2 WT enzyme) [nM] | IC50 (EGFR wild type (EGFR WT); [2]) [nM] | efflux ratio at 2 h, 1 µM (BCRP) | IC50 ([1]; ErbB2 YVMA phosphorylation) [nM] | efflux ratio at 2 h, 1 µM (MDR1 (P-gp)) | IC50 (EGFR; EGFR enzyme) [nM] | IC50 (ErbB2 WT; ErbB2 WT enzyme assay) [nM] | IC50 (EGFR wild type (EGFR WT); [3]) [nM] | IC50 [1, 4] [nM] | IC50 (EGFR; EGFR enzyme assay) [nM] | SMILES
1 | 48.5 | 3620 | 2.4 | 24.4 | 1 | 6690 |  |  |  |  | CC#CC(=O)N1CC[C@@H]2C[C@H]1CN2c1ccc2ncnc(Nc3ccc(Oc4ccn5ncnc5c4)c(C)c3F)c2n1 [Example 176, 1-((1 S,5R)-6-(4-((4-([1,2,4]triazolo[1,5-a]pyridin-7-yloxy)-2-fluoro-3-methylphenyl)amino)pyrido[3,2-d]pyrimidin-6-yl)-2,6-diazabicyclo[3.2.1]octan-2-yl)but-2-yn-1-one]
2 | 9.7 | 156 | 3.6 | 5.7 | 1.9 | 129 |  |  |  |  | C=CC(=O)N1CC[C@@H]2C[C@H]1CN2c1ccc2ncnc(Nc3cc(Cl)c(Oc4ccn5ncnc5c4)cc3F)c2n1 [Example 177, 1-((1 S,5R)-6-(4-((4-([1,2,4]triazolo[1,5-a]pyridin-7-yloxy)-5-chloro-2-fluorophenyl)amino)pyrido[3,2-d]pyrimidin-6-yl)-2,6-diazabicyclo[3.2.1]octan-2-yl)prop-2-en-1-one]
3 | 26.7 | 2900 | 2.5 | 15 | 0.9 | 1820 |  |  |  |  | C=CC(=O)N1C[C@@H](c2ccc3ncnc(Nc4ccc(Oc5ccc6c(c5)ncn6C)c(C)c4F)c3n2)C[C@@H]1C [Example 191, 1-((2S,4S)-4-(4-((2-fluoro-3-methyl-4-((1-methyl-1H-benzo[d]imidazol-5-yl)oxy)phenyl)amino)pyrido[3,2-d]pyrimidin-6-yl)-2-methylpyrrolidin-1-yl)prop-2-en-1-one]
4 | 61.8 | ≥ 5000 | 3.4 | 16 | 0.7 | ≥ 10000 |  |  |  |  | C=CC(=O)N1C[C@H](c2ccc3ncnc(Nc4ccc(Oc5ccc6c(c5)ncn6C)c(C)c4F)c3n2)C[C@H]1C [Example 193, 1-((2R,4R)-4-(4-((2-fluoro-3-methyl-4-((1-methyl-1H-benzo[d]imidazol-5-yl)oxy)phenyl)amino)pyrido[3,2-d]pyrimidin-6-yl)-2-methylpyrrolidin-1-yl)prop-2-en-1-one]
5 | 133 | ≥ 5000 | 1.4 | 309 | 1.3 | 5830 |  |  |  |  | C=CC(=O)N1C[C@H]2CC[C@@H](C1)[C@@H]2c1ccc2ncnc(Nc3cc(C)c(Oc4ccn5ncnc5c4)cc3F)c2n1 [Example 222, 1-((1R,5S,8r)-8-(4-((4-([1,2,4]triazolo[1,5-a]pyridin-7-yloxy)-2-fluoro-5-methylphenyl)amino)pyrido[3,2-d]pyrimidin-6-yl)-3-azabicyclo[3.2.1]octan-3-yl)prop-2-en-1-one]
6 | 13.6 | 996 | 2.7 | 21.4 | 0.8 | 312 |  |  |  |  | C=CC(=O)N1C[C@H]2C[C@H](c3ccc4ncnc(Nc5ccc(Oc6ccn7ncnc7c6)c(Cl)c5F)c4n3)[C@@H]1C2 [Example 230, 1-((1 S,4S,6S)-6-(4-((4-([1,2,4]triazolo[1,5-a]pyridin-7-yloxy)-3-chloro-2-fluorophenyl)amino)pyrido[3,2-d]pyrimidin-6-yl)-2-azabicyclo[2.2.1]heptan-2-yl)prop-2-en-1-one]
7 | 36.7 | 2250 | 5.2 | 24.3 | 1.8 | 955 |  |  |  |  | C=CC(=O)N1CCN(c2ccc3ncnc(Nc4ccc(Oc5cnc6c(c5)ncn6C)c(Cl)c4F)c3n2)CC1(C)C [Example 239, 1-(4-(4-((3-chloro-2-fluoro-4-((3-methyl-3H-imidazo[4,5-b]pyridin-6-yl)oxy)phenyl)amino)pyrido[3,2-d]pyrimidin-6-yl)-2,2-dimethylpiperazin-1-yl)prop-2-en-1-one]
8 | 83.1 | ≥ 5000 | 4.2 | 177 | 1.2 | ≥ 10000 |  |  |  |  | Cc1c(Oc2ccn3ncnc3c2)ccc(Nc2ncnc3ccc(N4CCN(C#N)C(C)(C)C4)nc23)c1F [Example 245, 4-(4-((4-([1,2,4]triazolo[1,5-a]pyridin-7-yloxy)-2-fluoro-3-methylphenyl)amino)pyrido[3,2-d]pyrimidin-6-yl)-2,2-dimethylpiperazine-1-carbonitrile]
9 | 71.5 | ≥ 5000 | 1.9 | 8.9 | 0.8 | ≥ 10000 |  |  |  |  | C=CC(=O)N1CCN(c2ccc3ncnc(Nc4ccc(Oc5cnc6c(c5)ncn6C)c(C)c4F)c3n2)CC1(C)C [Example 247, 1-(4-(4-((2-fluoro-3-methyl-4-((3-methyl-3H-imidazo[4,5-b]pyridin-6-yl)oxy)phenyl)amino)pyrido[3,2-d]pyrimidin-6-yl)-2,2-dimethylpiperazin-1-yl)prop-2-en-1-one]
10 | 11.8 | 2050 | 5.9 | 8.7 | 1.4 | 1330 |  |  |  |  | C=CC(=O)N1CCN(c2ccc3ncnc(Nc4ccc(Oc5cnc6c(c5)ncn6C)c(Cl)c4)c3n2)CC1(C)C [Example 249]
11 |  |  | 4.8 |  | 1.5 |  | 494 | ≥ 5000 | 27.3 | ≥ 10000 | C=CC(=O)N1C[C@@H]2C[C@H]1CN(c1ccc3ncnc(Nc4ccc(Oc5ccn6ncnc6c5)c(C)c4F)c3n1)C2 [Example 251]
12 |  |  | 2.9 |  | 1 |  | 170 | ≥ 5000 | 21.1 | 4580 | C=CC(=O)N1CCN(c2ccc3ncnc(Nc4cc(C)c(Oc5ccc6c(c5)ncn6C)cc4F)c3n2)C[C@@H]1C1CC1 [Example 252]
13 |  |  | 2.4 |  | 1.3 |  | 92.6 | ≥ 5000 | 23.2 | 5340 | C=CC(=O)N1CCN(c2ccc3ncnc(Nc4cc(C)c(Oc5ccc6c(c5)ncn6C)cc4F)c3n2)C[C@H]1C(C)C [Example 254]

Row | SMILES | IC50 (ErbB2 WT; ErbB2 WT enzyme) [nM] | IC50 (EGFR wild type (EGFR WT); [2]) [nM] | efflux ratio at 2 h, 1 µM (BCRP) | IC50 ([1]; ErbB2 YVMA phosphorylation) [nM] | efflux ratio at 2 h, 1 µM (MDR1 (P-gp)) | IC50 (EGFR; EGFR enzyme) [nM] | IC50 (ErbB2 WT; ErbB2 WT enzyme assay) [nM] | IC50 (EGFR wild type (EGFR WT); [3]) [nM] | IC50 [1, 4] [nM] | IC50 (EGFR; EGFR enzyme assay) [nM]
14 | C=CC(=O)N1[C@@H]2CC[C@H]1C[C@@H](c1ccc3ncnc(Nc4ccc(Oc5ccn6ncnc6c5)c(Cl)c4F)c3n1)C2 [Example 214, 1-((1R,3r,5S)-3-(4-((4-([1,2,4]triazolo[1,5-a]pyridin-7-yloxy)-3-chloro-2-fluorophenyl)amino)pyrido[3,2-d]pyrimidin-6-yl)-8-azabicyclo[3.2.1]octan-8-yl)prop-2-en-1-one] | 21.6 | ≥ 5000 | 3.8 | 25 | 1.4 | 279 |  |  |  | 
15 | CC#CC(=O)N1CC2CCC(C1)N2c1ccc2ncnc(Nc3ccc(Oc4ccn5ncnc5c4)c(C)c3F)c2n1 [Example 246, 1-(8-(4-((4-([1,2,4]triazolo[1,5-a]pyridin-7-yloxy)-2-fluoro-3-methylphenyl)amino)pyrido[3,2-d]pyrimidin-6-yl)-3,8-diazabicyclo[3.2.1]octan-3-yl)but-2-yn-1-one] | 34.8 | 1300 | 1.3 | 16.2 | 0.5 | 1800 |  |  |  | 
